In patent US4175081A, “5-Substituted thiadiazole ureas” (priority 1977, dated 1979):

Assays:
Bean (BN) [1] = assay: Post-emergence herbicide test; assay type: in vivo, Phaseolus vulgaris var. Black Valentine; details: Phaseolus vulgaris, post-emergence, 336 h; 8 lb/acre; two weeks after treatment
In short: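 Bean seedlings (Phaseolus vulgaris var. Black Valentine) were grown in potting soil in 3' pots until the primary leaves expanded. They were then sprayed under a hood with a removable belt and fixed nozzle, using 50 ml formulations. Afterward they were returned to the greenhouse and watered only by sub-irrigation. Percent control was judged visually two weeks after treatment.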

Corn (CN) [2] = assay: Pre-emergence herbicide test; assay type: in vivo; details: Zea mays, 336 h, 8 lb/acre, two weeks after treatment
In short: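 Visual injury/control ratings were made 2 weeks post-spray on corn pots seeded (4 seeds, seed-diameter depth) the day before treatment. Application was a belt-hood spray of 38 gal/acre delivering 8 lbs active per acre, with a 4 lbs/acre rate also formulated. Watering was by sub-irrigation throughout.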

Cotton (CT) [3] = assay: Post-emergence herbicide test; assay type: in vivo, Gossypium hirsutum var. DPL smooth leaf; details: Gossypium hirsutum, post-emergence, 336 h; 8 lb/acre; two weeks after treatment
In short: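 This greenhouse post-emergence test measured how well spray treatments controlled cotton. Seedlings of Gossypium hirsutum var. DPL smooth leaf, with expanded cotyledons and a first true leaf 1' in length, were sprayed with 50 ml formulations in a belt-fed spray hood. They were then returned to the greenhouse and watered only by sub-irrigation. Injury was scored visually as % control after two weeks.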

Turnip (TP) [4] = assay: Pre-emergence herbicide test; assay type: in vivo, Brassica sp.; details: Brassica rapa, pre-emergence, 336 h; 8 lb/acre; two weeks after treatment
In short: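 In this pre-emergence greenhouse test, turnip was seeded on the surface of potting soil in 3' plastic pots, lightly covered with screened soil, and watered from below. One day later the pots were sprayed in a belt-fed spray hood. Watering continued only by sub-irrigation, and percent control was visually scored two weeks after treatment.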

Barnyard grass (BG) [5] = assay: Pre-emergence herbicide test; assay type: in vivo; details: Echinochloa crus-galli, 336 h, 8 lb/acre, two weeks after treatment
In short: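 Greenhouse pre-emergence spray test: pots seeded one day before treatment received compound at rates of 8 or 4 lb/acre (38 gal/acre). Visual injury/control scores for Echinochloa crus-galli taken at two weeks, with watering by sub-irrigation only.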

Crabgrass (CG) [6] = assay: Post-emergence herbicide test; assay type: in vivo, Digitaria sanquinalis; details: Digitaria sanguinalis, post-emergence, 336 h; 8 lb/acre; two weeks after treatment
In short: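 Crabgrass (Digitaria sanquinalis) was surface seeded individually in 3' plastic pots of potting soil, covered with screened soil, and watered by sub-irrigation in greenhouse trays. Planting was staggered so seedlings reached the target stage together. Post-emergence sprays were applied in a hood with a removable belt and fixed nozzle, and control was visually rated two weeks after treatment.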

Cotton (CT) [7] = assay: Pre-emergence herbicide test; assay type: in vivo, Gossypium hirsutum var. DPL smooth leaf; details: Gossypium hirsutum, 336 h, 8 lb/acre, two weeks after treatment
In short: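 Visual injury/control ratings were taken at two weeks post-spray. Pots seeded a day earlier received compound pre-emergence at 8 lbs/acre, or 4 lbs/acre, in a 38 gallon/acre spray volume, and were then held in the greenhouse, watered only from below.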

Amaranth pigweed (PW) [8] = assay: Pre-emergence herbicide test; assay type: in vivo, Amaranthus retroflexus; details: 336 h, 8 lb/acre, two weeks after treatment
In short: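 Visual injury or control ratings were made at two weeks on pre-emergence pots, sub-irrigated in the greenhouse. Seeds were sown a day before a hood spray delivering 8 lbs/acre (or 4 lbs/acre) of compound in 38 gallons per acre.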

Johnson grass (JG) [9] = assay: Pre-emergence herbicide test; assay type: in vivo, Sorgum helepense; details: Sorghum halepense, 336 h, 8 lb/acre, two weeks after treatment
In short: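 Visual injury or control rating two weeks post-treatment, after pre-emergence spray of 8 or 4 lbs active per acre (38 gal/acre) onto pots sown the previous day. Greenhouse watering by sub-irrigation only.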

Barnyard grass (BG) [10] = assay: Post-emergence herbicide test; assay type: in vivo; details: Echinochloa crus-galli, 336 h, 8 lb/acre, two weeks after treatment
In short: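 Greenhouse pot-grown barnyard grass seedlings sprayed post-emergence at 8 lbs active compound per acre (some at 4 lbs/acre) in 38 gallons per acre, then sub-irrigated. Injury or control rated visually two weeks after treatment.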

Corn (CN) [11] = assay: Post-emergence herbicide test; assay type: in vivo; details: Zea mays, 336 h, 8 lb/acre, two weeks after treatment
In short: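 Greenhouse seedlings grown in potting soil and sprayed post-emergence at 8 lbs compound/acre (formulations also made for 4 lbs/acre) in 38 gallons/acre spray volume. Watering by sub-irrigation only. Injury or control rated visually two weeks after treatment.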

Amaranth pigweed (PW) [12] = assay: Post-emergence herbicide test; assay type: in vivo, Amaranthus retroflexus; details: 336 h, 8 lb/acre, two weeks after treatment
In short: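 Visual injury or control ratings were made two weeks after spraying, with greenhouse watering by sub-irrigation only. Treatment was post-emergence, when pigweed seedlings had 1 or 2 true leaves, at 8 lbs active compound per acre (4 lbs/acre formulations also made) in a 38 gallons-per-acre spray volume.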

Bean (BN) [13] = assay: Pre-emergence herbicide test; assay type: in vivo, Phaseolus vulgaris var. Black Valentine; details: Phaseolus vulgaris, 336 h, 8 lb/acre, two weeks after treatment
In short: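 Visual injury/control ratings were taken two weeks post-spray on sub-irrigated Phaseolus vulgaris var. Black Valentine. Pots were sown a day before treatment. Pre-emergence spray delivered 8 lbs actual compound per acre (or 4 lbs/acre) at 38 gallons per acre.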

Turnip (TP) [14] = assay: Post-emergence herbicide test; assay type: in vivo, Brassica sp.; details: Brassica rapa, post-emergence, 336 h; 8 lb/acre; two weeks after treatment
In short: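 A greenhouse post-emergence herbicide test on turnip. Seeds were sown on the surface of potting soil in 3' plastic pots, lightly covered with screened soil and watered from below. Planting was timed so seedlings had 1 or 2 true leaves above the cotyledons at spraying, done in a hood with a fixed nozzle. Control or injury was scored by eye after two weeks.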

Johnson grass (JG) [15] = assay: Post-emergence herbicide test; assay type: in vivo, Sorgum helepense; details: Sorghum halepense, 336 h, 8 lb/acre, two weeks after treatment
In short: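 Visual injury or control scores taken 2 weeks after a post-emergence spray of pot-grown plants. Application was 8 lbs/acre (or 4 lbs/acre) in 38 gal/acre. Plants were held in the greenhouse with sub-irrigation only.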

[16] = test system: Yellow foxtail grass (YF); assay: Post-emergence herbicide test; assay type: in vivo, Setaria glauca; details: Setaria, 336 h, 8 lb/acre, two weeks after treatment
Method: (§1) Yellow foxtail grass (YF)--Setaria glauca
(§2) All crop and weed species were planted individually in 3' plastic pots containing potting soil. Four seeds each of corn, cotton, and snapbeans were seeded to a depth equal to the diameter of the seed. All other species were surface seeded and sprinkled with screened soil in an amount sufficient to cover the seed. Immediately after planting, all pots were watered by sub-irrigation in greenhouse trays. Pots for the pre-emergence phase were seeded one day before treatment.
Planting dates for the post-emergence phase were varied so that all seedlings would reach the desired stage of development simultaneously. The proper stage of seedling development for treatment in the post-emergence phase is as follows:
(§3) Compounds were tested at rates of application equivalent to 8 lbs. of actual compound per acre in a spray volume of 38 gallons per acre. Spray hood constants required to deliver the above volume are as follows:
(§4) Formulations for spray applications were prepared in 50 ml volumes with the following three components:
(§5) Formulations for the 4 lbs/acre rate were prepared by adjusting the amount of active ingredient accordingly.
(§6) Spray applications were made in a hood containing a removable belt and fixed spray nozzle. For passage through the spray hood, one pot of each specie (pre-emergence phase) was placed on the rear half of the flat. Treatments were removed to the greenhouse after spraying. Watering during the observation period was done only by sub-irrigation.
(§7) Two weeks after treatment, pre- and post-emergence injury or control was visually rated, and the results were as shown in the following tables. Pre-emergence data are provided in TABLE III and post-emergence data are provided in TABLE IV, for compounds having the formula illustrated in TABLE I. Correspondingly, pre-emergence and post-emergence data, respectively, are set forth in TABLES V AND VI, for compounds having the formula illustrated in TABLE II.

Crabgrass (CG) [17] = assay: Pre-emergence herbicide test; assay type: in vivo, Digitaria sanquinalis; details: Digitaria sanguinalis, pre-emergence, 336 h; 8 lb/acre; two weeks after treatment
In short: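 Crabgrass (Digitaria sanquinalis) was surface seeded in 3' plastic pots of potting soil, covered with screened soil, and watered by sub-irrigation in greenhouse trays. Pots were seeded one day before spraying in a hood with a moving belt and fixed nozzle. Plants stayed in the greenhouse on sub-irrigation, and pre-emergence control was rated visually two weeks after treatment.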

[18] = test system: Yellow foxtail grass (YF); assay: Pre-emergence herbicide test; assay type: in vivo, Setaria glauca; details: Setaria, 336 h, 8 lb/acre, two weeks after treatment
Method: as §1, §2, §3, §4, §5, §6, §7

Row | SMILES | pest or weed control at 8966.8 g/ha (Bean (BN) [1]) [%] | pest or weed control at 8966.8 g/ha (Corn (CN) [2]) [%] | pest or weed control at 8966.8 g/ha (Cotton (CT) [3]) [%] | pest or weed control at 8966.8 g/ha (Turnip (TP) [4]) [%] | pest or weed control at 8966.8 g/ha (Barnyard grass (BG) [5]) [%] | pest or weed control at 8966.8 g/ha (Crabgrass (CG) [6]) [%] | pest or weed control at 8966.8 g/ha (Cotton (CT) [7]) [%] | pest or weed control at 8966.8 g/ha (Amaranth pigweed (PW) [8]) [%] | pest or weed control at 8966.8 g/ha (Johnson grass (JG) [9]) [%] | pest or weed control at 8966.8 g/ha (Barnyard grass (BG) [10]) [%] | pest or weed control at 8966.8 g/ha (Corn (CN) [11]) [%] | pest or weed control at 8966.8 g/ha (Amaranth pigweed (PW) [12]) [%] | pest or weed control at 8966.8 g/ha (Bean (BN) [13]) [%] | pest or weed control at 8966.8 g/ha (Turnip (TP) [14]) [%] | pest or weed control at 8966.8 g/ha (Johnson grass (JG) [15]) [%] | pest or weed control at 8966.8 g/ha [16] [%] | pest or weed control at 8966.8 g/ha (Crabgrass (CG) [17]) [%] | pest or weed control at 8966.8 g/ha [18] [%]
1 | CCc1nnc(NC(=O)NC)s1 [Example 3, 1-Methyl-3-[5-Ethyl-2-(1,3,4-Thiadiazolyl)] Urea] | 60 | 100 | 90 | 70 | 10 | 20 | 50 | 70 | 20 | 20 | 20 | 100 | 90 | 100 | 20 | 20 | 10 | 
2 | CCCNC(=O)Nc1nnc(C(F)(F)F)s1 [Example 10] | 50 | 50 | 60 | 10 | 10 | 50 | 80 |  | 20 | 40 | 40 | 100 | 80 | 60 | 30 | 20 | 20 | 20
3 | CC(C)NC(=O)Nc1nnc(C(F)(F)F)s1 [Example 11] | 50 | 80 | 60 | 10 | 10 | 50 | 80 |  | 30 | 40 | 40 | 100 | 30 | 60 | 30 | 20 | 20 | 10
4 | CNC(=O)Nc1nnc(C)s1 [Example 18] | 50 | 30 | 50 | 50 | 20 | 20 | 30 | 10 | 10 | 20 | 20 | 40 | 50 | 40 | 20 | 20 | 10 | 
5 | CNC(=O)Nc1nnc(-c2ccccc2)s1 [Example 34] | 60 | 10 | 50 | 20 | 10 | 10 | 40 |  | 20 | 10 | 50 | 20 | 80 | 40 | 30 | 30 | 10 | 20
6 | CNC(=O)Nc1nnc(-c2ccc(Cl)cc2)s1 [Example 71] | 50 | 0 | 0 | 0 | 20 | 20 | 90 |  | 0 | 20 | 0 | 20 | 50 | 20 | 20 | 30 | 0 | 0
